Reference: paper PMC7008064 (Drug Design, Development and Therapy, 2020)

How the values were obtained:
[1] = system: colorectal adenocarcinoma (HT-29) cell line; assay: cells; type: cell-based; details: for IC50: Homo sapiens, HT-29, 48 h, read-out: IC50 HT-29
HDAC2 = HDAC2 (Homo sapiens, UniProt Q92769); assay: HDAC2 inhibitory activity; type: biochemical
[2] = system: neuroblastoma (SH-SY5Y) cell line; assay: cells; type: cell-based; details: for IC50: Homo sapiens, SH-SY5Y, 48 h, read-out: IC50 SH-SY5Y
HDAC1 = HDAC1 (Homo sapiens, UniProt Q13547); assay: HDAC1 inhibitory activity; type: biochemical
[3] = HDAC2 IC50 (as printed in docking Table 4), unrounded values repeated in Table 4
[4] = IC50 HDAC2, mean ± S.E. of three independent experiments
[5] = HDAC1 IC50 (as printed in docking Table 3), unrounded values repeated in Table 3
[6] = IC50 HDAC1, mean ± S.E. of three independent experiments
[7] = ratio of IC50 values vs Gefitinib

Chain of HDAC1 (Q13547 whole entry): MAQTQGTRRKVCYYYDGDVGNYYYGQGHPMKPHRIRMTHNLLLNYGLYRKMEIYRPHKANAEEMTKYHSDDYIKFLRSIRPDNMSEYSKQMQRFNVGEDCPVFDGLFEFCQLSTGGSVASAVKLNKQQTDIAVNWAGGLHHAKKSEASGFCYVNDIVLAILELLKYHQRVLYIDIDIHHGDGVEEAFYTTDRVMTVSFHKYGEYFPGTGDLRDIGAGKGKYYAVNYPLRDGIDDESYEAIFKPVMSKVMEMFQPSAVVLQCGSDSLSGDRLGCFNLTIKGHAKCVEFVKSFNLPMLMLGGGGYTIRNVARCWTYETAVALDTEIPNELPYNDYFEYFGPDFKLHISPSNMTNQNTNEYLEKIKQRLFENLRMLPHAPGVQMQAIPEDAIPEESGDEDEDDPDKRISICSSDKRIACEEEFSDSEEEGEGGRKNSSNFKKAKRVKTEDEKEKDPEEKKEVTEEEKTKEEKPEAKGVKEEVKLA
Chain of HDAC2 (Q92769 whole entry): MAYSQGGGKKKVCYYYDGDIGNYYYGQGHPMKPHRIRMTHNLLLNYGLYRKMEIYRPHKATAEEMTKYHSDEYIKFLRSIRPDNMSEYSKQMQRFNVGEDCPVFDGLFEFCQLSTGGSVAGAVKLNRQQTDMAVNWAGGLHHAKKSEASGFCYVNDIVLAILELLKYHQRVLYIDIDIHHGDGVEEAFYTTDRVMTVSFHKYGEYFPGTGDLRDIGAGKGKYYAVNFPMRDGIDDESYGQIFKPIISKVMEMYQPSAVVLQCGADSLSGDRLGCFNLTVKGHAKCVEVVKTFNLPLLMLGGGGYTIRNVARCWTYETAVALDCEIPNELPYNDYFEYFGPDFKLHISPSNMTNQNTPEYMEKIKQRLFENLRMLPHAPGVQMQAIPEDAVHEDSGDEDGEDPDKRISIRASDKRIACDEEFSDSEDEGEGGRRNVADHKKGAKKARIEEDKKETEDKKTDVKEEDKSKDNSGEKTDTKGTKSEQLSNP

Row | SMILES | IC50 [1] [nM] | IC50 (HDAC2; [3]) [nM] | IC50 (HDAC2; [4]) [nM] | IC50 [2] [nM] | IC50 (HDAC1; [5]) [nM] | IC50 (HDAC1; [6]) [nM] | fold worsening of effectiveness against HDAC1 on shifting hydrazide ZBG from para (7a) to meta (8b) (HDAC1; 8b relative to 7a) [fold] | fold enhanced efficiency than reference drug Gefitinib against SH-SY5Y cells [2, 7] [fold] | times more potent than Gefitinib toward HT-29 cells [1, 7] [times]
1 | Cc1nc(C)c(C(=O)Nc2ccc(CC(=O)NN)cc2)nc1C [Compound 7c, N-(4-(2-Hydrazinyl-2-Oxoethyl)phenyl)-3,5,6-Trimethylpyrazine-2-Carboxamide] | 6110 ± 170 | 205 | 205.4 ± 0.43 | 43400 ± 1210 | 264 | 263.5 ± 1.27 | – | – | –
2 | Cc1nc(C)c(C(=O)Nc2ccc(CC(=O)NO)cc2)nc1C [Compound 7b, N-(4-(2-(Hydroxyamino)-2-Oxoethyl)phenyl)-3,5,6-Trimethylpyrazine-2-Carboxamide] | 4570 ± 130 | 132 | 132.3 ± 0.12 | 67000 ± 1910 | 2430 | 2434.7 ± 1.25 | – | – | –
3 | Cc1nc(C)c(C(=O)Nc2ccc(C(=O)NN)cc2)nc1C [Compound 7a, N-(4-(Hydrazinecarbonyl)phenyl)-3,5,6-Trimethylpyrazine-2-Carboxamide] | 15100 ± 430 | 53.7 | 53.7 ± 0.05 | 1600 ± 40 | 114 | 114.3 ± 0.44 | – | 4.7 | –

Continued, in another order:

Row | IC50 [1] [nM] | IC50 (HDAC2; [3]) [nM] | IC50 (HDAC2; [4]) [nM] | IC50 [2] [nM] | IC50 (HDAC1; [5]) [nM] | IC50 (HDAC1; [6]) [nM] | fold worsening of effectiveness against HDAC1 on shifting hydrazide ZBG from para (7a) to meta (8b) (HDAC1; 8b relative to 7a) [fold] | SMILES | fold enhanced efficiency than reference drug Gefitinib against SH-SY5Y cells [2, 7] [fold] | times more potent than Gefitinib toward HT-29 cells [1, 7] [times]
4 | 3250 ± 90 | 113 | 112.9 ± 0.09 | 28500 ± 800 | 1800 | 1800.1 ± 0.45 | 15.7 | Cc1nc(C)c(C(=O)Nc2cccc(C(=O)NN)c2)nc1C [Compound 8b, N-(3-(Hydrazinecarbonyl)phenyl)-3,5,6-Trimethylpyrazine-2-Carboxamide] | – | –
5 | 1960 ± 50 | 169 | 168.8 ± 0.13 | 4270 ± 120 | 468 | – | – | Cc1nc(C)c(C(=O)Nc2cccc(C(=O)NO)c2)nc1C [Compound 8a, N-(3-(Hydroxycarbamoyl)phenyl)-3,5,6-Trimethylpyrazine-2-Carboxamide] | – | 2.5
